Assay results: article PMC6686011, “Ruthenium(II) complexes with 6-methyl-2-thiouracil selectively reduce cell proliferation, cause DNA double-strand break and trigger caspase-mediated apoptosis through JNK/p38 pathways in human acute promyelocytic leukemia cells” (Scientific Reports, 2019)

Columns and labels:
[1] = system: BAD KO SV40 MEF (immortalized mouse embryonic fibroblast with the BAD gene knocked out); assay: Cytotoxicity, alamar blue assay; format: cell-based; conditions: Mus musculus, MEF, 72 h, read-out: IC50, BAD KO SV40 MEF cell line
Procedure: (§1) Cytotoxicity was measured using alamar blue assay and was performed following the procedure that was described previously[21],[22]. Briefly, cells were inserted in 96-well plates and incubated overnight. Then, the complexes were dissolved in dimethyl sulfoxide (DMSO, LGC Biotechnology, São Paulo, SP, Brazil) and added to each well and incubated for 72 h. […] Before the end of treatment (4 h for cell lines and 24 h for PBMC), 20 μL of a stock solution (0.312 mg/mL) of alamar blue (resazurin, Sigma-Aldrich Co.) were added to each well. Absorbance at 570 nm and 600 nm was measured using SpectraMax 190 Microplate Reader (Molecular Devices, Sunnyvale, CA, USA).

[2] = system: HL-60 (human acute promyelocytic leukemia); assay: Cytotoxicity, alamar blue assay; format: cell-based; conditions: Homo sapiens, HL-60; alamar blue, 72 h; read-out: IC50 and 95% CI, HL-60
Procedure: as §1

[3] = system: SCC-4 (human oral squamous cell carcinoma); assay: Cytotoxicity, alamar blue assay; format: cell-based; conditions: Homo sapiens, SCC-4; alamar blue, 72 h; read-out: IC50 and 95% CI, SCC-4
Procedure: as §1

[4] = system: WT SV40 MEF (wild-type immortalized mouse embryonic fibroblasts); assay: Cytotoxicity, alamar blue assay; format: cell-based; conditions: Mus musculus, MEF, 72 h, read-out: IC50, WT SV40 MEF cell line
Procedure: as §1

[5] = system: PBMC (human peripheral blood mononuclear cells); assay: Cytotoxicity, alamar blue assay; format: cell-based; conditions: Homo sapiens, PBMC, non-cancer cells, 72 h, read-out: IC50 and 95% CI, PBMC
Source text: HL-60 (human acute promyelocytic leukemia), K-562 (human chronic myelogenous leukemia), HCT116 (human colon carcinoma), HepG2 (human hepatocellular carcinoma), HSC-3 (human oral squamous cell carcinoma), SCC-9 (human oral squamous cell carcinoma), B16-F10 (mouse melanoma), MRC-5 (human lung fibroblast), WT SV40 MEF (wild-type immortalized mouse embryonic fibroblast) and BAD KO SV40 MEF (BAD gene knockout immortalized mouse embryonic fibroblast) cell lines were obtained from American Type Culture Collection (ATCC, Manassas, VA, USA). Human peripheral blood mononuclear cells (PBMC) were isolated using standard Ficoll density gradient from heparinized blood collected from 20- to 35-year-old, non-smoker healthy donors with informed consent (number 031019/2013) approved by Human Ethics Committee of Gonçalo Moniz Institute from Oswaldo Cruz Foundation (IGM-FIOCRUZ/BA), and all experiments were performed in accordance with relevant guidelines and regulations. Cells were cultured as recommended by ATCC guidelines and a mycoplasma stain kit (Sigma-Aldrich) was used to validate the use of cells free from contamination. Cell viability in all experiments was examined using the trypan blue exclusion (TBE) assay. Over 90% of the cells were viable at the beginning of the culture.
as §1

HL-60 cells [6] = assay: Trypan blue exclusion assay; format: cell-based, human; conditions: HL-60, 24 h, 1 μM
Procedure: The number of viable cells and non-viable (take up trypan blue) were counted by TBE method. Shortly, 90 μL was removed from the cell suspension and 10 μL of trypan blue (0.4%) was added. Cell counting was performed using a light microscope with a neubauer chamber.

HL-60 cells [7] = assay: Morphological analysis (May-Grunwald-Giemsa staining, light scattering); format: cell-based, human; conditions: HL-60, 12 and 24 h; DOX 1 µM
Procedure: To cell morphology evaluation, slides were prepared using cytospin and stained with May-Grunwald-Giemsa. Morphological changes were assessed by light microscopy (Olympus BX41, Tokyo, Japan) using Image-Pro software (Media Cybernetics, Inc. Silver Spring, USA). Light scattering features were determined by flow cytometry. At least 10^4 events were recorded per sample using a BD LSRFortessa cytometer along with BD FACSDiva Software (BD Biosciences, San Jose, CA, USA) and Flowjo Software 10 (Flowjo LCC, Ashland, OR, USA). Cellular debris was omitted from the analysis.

HL-60 cells [8] = assay: Apoptosis quantification, annexin V-FITC/PI flow cytometry; format: cell-based, human
Procedure: Shortly, cells were washed twice with saline solution and resuspended in 100 μL of binding buffer plus 5 μL of propidium iodide (PI) and 5 μL of FITC Annexin V. Then, cells were gently mixed by vortexing and incubated for 15 min at room temperature in the dark. Finally, 400 μL of binding buffer was added to each tube, and the cell fluorescence was determined by flow cytometry, as described above. Percentage of viable, early apoptotic, late apoptotic and necrotic cells were measured. […] Cells were then analyzed by FITC Annexin V Apoptosis Detection assay as described above.

HL-60 cells [9] = assay: Mitochondrial transmembrane potential, rhodamine 123; format: cell-based, human; conditions: HL-60, 24 h; DOX 1 µM
Procedure: Mitochondrial transmembrane potential was determined by retention of dye rhodamine 123 as described previously. Briefly, cells were incubated with rhodamine 123 (5 μg/mL, Sigma-Aldrich Co.) at room temperature for 15 min in dark and washed with saline solution. Cells were incubated again in saline solution for more 30 min in dark and cell fluorescence was determined by flow cytometry as described above.

HL-60 cell xenografts = assay: Human myeloid leukemia xenograft model; format: in vivo, C.B-17 SCID mice; conditions: 0.1 mg/kg intraperitoneal once a day for 13 consecutive days
Procedure: Fifty six specific-pathogen-free (SPF) C.B-17 severe combined immunodeficient (SCID) mice (females, 23–26 g) were used in this study. The animals were obtained and maintained at animal facilities from Gonçalo Moniz Institute-FIOCRUZ (Salvador, Bahia, Brazil), and housed in cages with free access to food and water, and kept under a 12:12 h light-dark cycle (lights on at 6:00 a.m.). The animals were treated according to ethical principles for animal experimentation of SBCAL (Brazilian Association of Laboratory Animal Science), Brazil. Experimental protocol have been approved (number 06/2015) by Animal Ethics Committee of Gonçalo Moniz Institute-FIOCRUZ (Salvador, Bahia, Brazil).
Human myeloid leukemia xenograft model was carry out as described previously by Rodrigues et al.[26] with minor modifications. HL-60 cells (2.5 × 10^7 cells/500 µL) were implanted subcutaneously into the left front armpit of the mice. […] When the tumors reached 100 to 200 mm^3 (22 days after HL-60 cells injection), the animals were treated through the intraperitoneal route (200 µL per animal) once a day for 13 consecutive days. One day after the end of the treatment, the animals were anesthetized, and peripheral blood samples were collected from brachial artery. Animals were euthanized by anesthetic overdose, and tumors were excised and weighed.

[10] = Toxicological evaluation in xenograft mice; format: in vivo, C.B-17 SCID mice; conditions: doxorubicin 0.1 mg/kg
Procedure: To assess toxicological aspects, mice were weighed at the beginning and at the end of the experiment as described previously by Rodrigues et al.[26]. […] Hematological analysis was performed using the Advia 60 hematology system (Bayer, Leverkusen, Germany). Livers, kidneys, lungs and hearts were removed, weighed and examined for any signs of macroscopic lesions, color changes and/or hemorrhages. After macroscopic examination, tumors, livers, kidneys, lungs and hearts were fixed in 4% formalin buffer and embedded in paraffin. Tissue sections were stained with hematoxylin/eosin staining, and a pathologist performed the histological analyses under optical microscopy.

COc1cccc2c1C(=O)c1c(O)c3c(c(O)c1C2=O)C[C@@](O)(C(=O)CO)C[C@@H]3O[C@H]1C[C@H](N)[C@H](O)[C@H](C)O1 [doxorubicin, reference compound] gave an IC50 [1] of 410 nM, an IC50 [2] of 20 nM and an IC50 [3] of 1430 nM. For the same compound, the IC50 [4] was 40 nM, the IC50 [5] was 5170 nM and the “Reduction of the number of viable cells” value (HL-60 cells [6]) was “reduced the number of viable cells”. The “Cell morphology, May-Grunwald-Giemsa staining” value (HL-60 cells [7]) was “presented changes associated with apoptosis”, the “Apoptotic cells, in words” value (HL-60 cells [8]; HL-60, 12 and 24 h, DOX 1 µM) was “induced apoptosis” and the “Apoptosis on cotreatment with pan-caspase inhibitor Z-VAD(OMe)-FMK, in words” value (HL-60 cells [8]; HL-60, 2 h pre-treatment 50 µM Z-VAD(OMe)-FMK, then 24 h) was “led to apoptosis through caspases pathways”. The “Mitochondrial transmembrane potential, in words” value (HL-60 cells [9]) was “induced depolarization of mitochondrial transmembrane potential”, the “Reduction of tumor weight” value (HL-60 cell xenografts) was 62.0% and the Kidney histopathology ([10]; complex 1 20 and 40 mg/kg) was “Coagulation necrosis was observed in renal tubules”. For the same compound, the Lung histopathology ([10]; complex 1 20 and 40 mg/kg) was “tumor nodules were observed only in one animal” and the Body weight ([10]; mice bearing HL-60 cells, 13 days) was “decreased body weight”.
